Measurements published in patent US20250352532A1, “REDUCED N[…] IN PHARMACEUTICAL COMPOSITIONS COMPRISING METHYLPHENIDATE” (MEDICE Arzneimittel Pütter GmbH & Co. KG, priority 2024, published 2025).

Assay: N-nitrosomethylphenidate content of methylphenidate compositions by UHPLC-MS/MS
Type: physicochemical
Settings: verbal assessment of Table 2; antioxidant/stabilizer in methylphenidate composition
Experimental: To determine the effect of various antioxidants or stabilizers on the prevention of nitrosamine formation in compositions containing methylphenidate, different pharmaceutical compositions were prepared as described in Example 1 above, except that antioxidants/stabilizers other than ascorbyl palmitate were used. However, for better comparability, the molar ratio of methylphenidate: antioxidant/stabilizer was kept constant at 1:3 in all compositions (except for the composition with no antioxidant/stabilizer). Accordingly, the compositions of Example 1 and Comparative Examples 2 to 7 differ only in the type of antioxidant/stabilizer and are otherwise composed exactly as shown in Table 1 above for Example 1. The content of N-nitrosomethylphenidate in the compositions was determined by UHPLC-MS/MS. Accordingly, the term “nitrosamine” in the present context refers to “N-nitrosomethylphenidate”. For sample preparation, the compositions were ground and the resulting powders were extracted with methanol. The following measurement conditions were used for the N-nitrosomethylphenidate determination: • LC column: Waters BEH Shield RP18 (100x2.1 mm, 1.7 um) • Flow rate: 0.4 mL/min • Column temperature: 50° C. . . . • Mobile phase: Phase A: Water with 0.1% by volume formic acid • Phase B: Acetonitrile • Gradient conditions: […]

## CCCCCCCCCCCCCCCC(=O)OC[C@H](O)[C@H]1OC(=O)C(O)=C1O [ascorbyl palmitate]
  effectiveness in reducing nitrosamine formation in compositions with methylphenidate: by far the most effective
